Laboratory results taken from US7947688B2, “N-[3-(3-substituted-pyrazolo[1,5-a]pyrimidin-7-yl)phenyl]-sulfonamides, and compositions, and methods related thereto” (Ferrer Internacional, S.A., priority 2003, dated 2011).

What was measured:
male CD1 mice = experiment: Predictive sedation-hypnosis test in mice (motor activity, crossings); format: in vivo; details: single equimolecular intraperitoneal dose, crossings over 30 min after dosing (first 5 min discarded) versus control
Description: • In vivo determination of predictive sedative-hypnotic action.
The in vivo effects of these compounds were assessed by a predictive sedation-hypnosis test in mice (D. J. Sanger et al., Eur. J. Pharmacol., 313, 35-42, 1996; and G. Griebel et al., Psychopharmacology, 146, 205-213, 1999). Groups of 5-8 male CD1 mice, weighing 22-26 g at the time of test, were used. The test compounds were administered in single equimolecular intraperitoneal doses, suspended in 0.25% agar with one drop of Tween in a volume of 10 ml/kg. Control animals received the vehicle alone. Using an Actisystem DAS16 (Panlab, S. L., Spain) the crossings (number of counts) were recorded for each mouse at 5-min intervals during a period of 30 minutes after dosing. The inhibition percentage of crossings of treated animals versus control animals (the first 5 min were discarded) was calculated.

α2-GABAA receptor = α2-GABAA receptor (Rattus norvegicus, UniProt P18508+P23576); experiment: Ligand-binding assay, radiolabeled flumazenil competition, rat spinal cord membranes; details: for inhibition at 10 µM: read-out: % Inhibition (10^−5 M), affinity for α2-GABAA receptor; for inhibition at 0.1 µM: read-out: % Inhibition (10^−7 M), affinity for α2-GABAA receptor
Description: Determination of the affinity of test compounds for α1- and α2-GABAA receptor.
Male Sprague-Dawley rats weighing 200-250 g at the time of experiment were used. After decapitation of the animal, the cerebellum (tissue that mostly contains α1-GABAA receptor) and spinal cord (tissue that mostly contains α2-GABAA receptor) were removed. The membranes were prepared according to the method by J. Lameh et al. (Prog. Neuro-Psychopharmacol. Biol. Psychiatry, 24, 979-991, 2000). Once the tissues weighed, they were suspended in 50 mM Tris.HCl (pH 7.7), 1:40 (v/v), homogenized and then centrifuged at 20000 g for 10 min at 7° C. The resulting pellet was resuspended under the same conditions and centrifuged again. The pellet was finally resuspended on a minimum volume and kept at −80° C. overnight. On the next day, the process was repeated until the final pellet was resuspended at a ratio of 1:10 (v/v).
Affinity was determined by competitive tests using radiolabeled flumazenil as ligand. The tests were performed according to the methods described by S. Arbilla et al. (Eur. J. Pharmacol., 130, 257-263, 1986); and Y. Wu et al. (Eur. J. Pharmacol., 278, 125-132, 1995). The membranes containing the study receptors, flumazenil (radiolabeling at a final concentration of 1 nM) and ascending concentrations of test compounds (in a total volume of 500 μl in […] [ph 7.4] Tris.HCl buffer) were incubated. Simultaneously, the membranes were only incubated with the radiolabeled flumazenil (total binding, 100%) and in the presence of an elevated concentration of unradiolabeled flumazenil (non-specific binding, % estimation of radiolabeled ligand). The reactions started on adding the radiolabeled ligand followed by incubation for 60 minutes at 0° C. At the end of the incubation period, the tubes were filtered using a Brandel Mod. M-48R harvester and then washed three times with cold test buffer. The harvester was fitted with a GF/B filter that retained the membranes containing the receptors and the radiolabeled ligand which had been bound to the receptors. Then the filters were removed and left till dry. Once dried, the filters were cut, placed in vials with scintillation liquid and left under stirring overnight. The next day the filters were counted using a Packard Mod. Tricarb scintillation counter.
X: amount of bound ligand for every concentration of compound.
T: total binding, maximum amount bound to the radiolabeled ligand.
N: non-specific binding, amount of radiolabeled ligand bound in a non-specific way irrespective of the receptor used.
Every concentrations of compound were tested in duplicate and their mean values were used to determine the experimental values of % specific binding versus the concentration of compound. […] Inhibition constants (Ki) were calculated from the IC50 values according to Cheng-Prusoff's formula (Y. Cheng y W. H. Prusoff, Biochem. Pharmacol., 22(23), 3099-3108, 1973).

Row | Structure (SMILES) | % Motor Activity Inhibition (male CD1 mice) | inhibition at 10 µM (α2-GABAA receptor) | inhibition at 0.1 µM (α2-GABAA receptor)
1 | CCN(c1cccc(-c2ccnc3c(C#N)cnn23)c1)S(C)(=O)=O [Example 5, N-[3-(3-cyano-pyrazolo[1,5-a]pyrimidin-7-yl)-phenyl]-N-ethyl-methanesulfonamide] | 80.91% | – | –
2 | CCN(c1cccc(-c2ccnc3c(C(=O)c4cccs4)cnn23)c1)S(C)(=O)=O [Example 6, N-ethyl-N-{3-[3-(thiophene-2-carbonyl)-pyrazolo[1,5-a]pyrimidin-7-yl]-phenyl}-methanesulfonamide] | 66.55% | – | –
3 | C#CCN(c1cccc(-c2ccnc3c(C(=O)c4cccs4)cnn23)c1)S(C)(=O)=O [Example 16, N-2-propynyl-N-{3-[3-(thiophene-2-carbonyl)-pyrazolo[1,5-a]pyrimidin-7-yl]-phenyl}-methanesulfonamide] | 95.36% | – | –
4 | CCCN(c1cccc(-c2ccnc3c(C(=O)c4cccs4)cnn23)c1)S(=O)(=O)CC [Example 17, N-propyl-N-{3-[3-(thiophene-2-carbonyl)-pyrazolo[1,5-a]pyrimidin-7-yl]-phenyl}-ethanesulfonamide] | 94.21% | 74.5% | 0%
5 | CCN(c1cccc(-c2ccnc3c(C(=O)c4cccs4)cnn23)c1)S(=O)(=O)CC [Example 18, N-ethyl-N-{3-[3-(thiophene-2-carbonyl)-pyrazolo[1,5-a]pyrimidin-7-yl]-phenyl}-ethanesulfonamide] | 93.39% | 93.7% | 20.7%
6 | C#CCN(c1cccc(-c2ccnc3c(C(=O)c4cccs4)cnn23)c1)S(=O)(=O)C(C)C [Example 19, N-2-propynyl-N-{3-[3-(thiophene-2-carbonyl)-pyrazolo[1,5-a]pyrimidin-7-yl]-phenyl}-2-propanesulfonamide] | 89.88% | 94.4% | 45.2%
7 | CCS(=O)(=O)N(C)c1cccc(-c2ccnc3c(C(=O)c4cccs4)cnn23)c1 [Example 20, N-methyl-N-{3-[3-(thiophene-2-carbonyl)-pyrazolo[1,5-a]pyrimidin-7-yl]-phenyl}-ethanesulfonamide] | 95.23% | 97.7% | 40.3%
8 | O=C(c1cccs1)c1cnn2c(-c3cccc(N4CCCS4(=O)=O)c3)ccnc12 [Example 22, 7-(3-(2-isothiazolidinyl-1,1-dioxide)-phenyl)-3-(thiophene-2-carbonyl)-pyrazolo[1,5-a]pyrimidine] | 91.39% | 98.2% | 24.2%
9 | CC(C)S(=O)(=O)N(C)c1cccc(-c2ccnc3c(C(=O)c4cccs4)cnn23)c1 [Example 23, N-methyl-N-{3-[3-(thiophene-2-carbonyl)-pyrazolo[1,5-a]pyrimidin-7-yl]-phenyl}-2-propane-sulfonamide] | 94.57% | 93.8% | 45.5%
10 | CCN(c1cccc(-c2ccnc3c(C(=O)c4cccs4)cnn23)c1)S(=O)(=O)C(C)C [Example 24, N-ethyl-N-{3-[3-(thiophene-2-carbonyl)-pyrazolo[1,5-a]pyrimidin-7-yl]-phenyl}-2-propane-sulfonamide] | 94.01% | 83% | 10.4%
11 | CCCN(c1cccc(-c2ccnc3c(C(=O)c4cccs4)cnn23)c1)S(=O)(=O)C(C)C [Example 25, N-propyl-N-{3-[3-(thiophene-2-carbonyl)-pyrazolo[1,5-a]pyrimidin-7-yl]-phenyl}-2-propane-sulfonamide] | 92.79% | 78.9% | 9.1%
12 | C#CCN(c1cccc(-c2ccnc3c(C#N)cnn23)c1)S(C)(=O)=O [Example 27, N-[3-(3-cyano-pyrazolo[1,5-a]pyrimidin-7-yl)-phenyl]-N-2-propynyl-methanesulfonamide] | 93.12% | 85.2% | 2.9%
13 | CCN(c1cccc(-c2ccnc3c(C#N)cnn23)c1)S(=O)(=O)CC [Example 29, N-[3-(3-cyano-pyrazolo[1,5-a]pyrimidin-7-yl)-phenyl]-N-ethyl-ethanesulfonamide] | 93.73% | 92.7% | 13.4%
14 | C#CCN(c1cccc(-c2ccnc3c(C#N)cnn23)c1)S(=O)(=O)C(C)C [Example 30, N-[3-(3-cyano-pyrazolo[1,5-a]pyrimidin-7-yl)-phenyl]-N-2-propynyl-propane-2-sulfonamide] | 94.86% | 73.3% | 0%
15 | N#Cc1cnn2c(-c3cccc(N4CCCS4(=O)=O)c3)ccnc12 [Example 33, 7-(3-(2-isothiazolidinyl-1,1-dioxide)-phenyl)-3-cyano-pyrazolo[1,5-a]pyrimidine] | 77.58% | 45.2% | 0%
16 | CC(C)S(=O)(=O)N(C)c1cccc(-c2ccnc3c(C#N)cnn23)c1 [Example 34, N-[3-(3-cyano-pyrazolo[1,5-a]pyrimidin-7-yl)-phenyl]-N-methyl-2-propanesulfonamide] | 92.58% | 87.6% | 6.9%
17 | CCN(c1cccc(-c2ccnc3c(C#N)cnn23)c1)S(=O)(=O)C(C)C [Example 35, N-[3-(3-cyano-pyrazolo[1,5-a]pyrimidin-7-yl)-phenyl]-N-ethyl-2-propanesulfonamide] | 92.55% | 86.5% | 24.5%
18 | CCCN(c1cccc(-c2ccnc3c(C#N)cnn23)c1)S(=O)(=O)C(C)C [Example 37, N-[3-(3-cyano-pyrazolo[1,5-a]pyrimidin-7-yl)-phenyl]-N-propyl-2-propanesulfonamide] | 92.13% | 40.2% | 0%
19 | C#CCN(c1cccc(-c2ccnc3c(C#N)cnn23)c1)S(=O)(=O)CC [Example 38, N-[3-(3-cyano-pyrazolo[1,5-a]pyrimidin-7-yl)-phenyl]-N-2-propynyl-ethanesulfonamide] | 94.85% | 77.6% | 17.4%
20 | CN(c1cccc(-c2ccnc3c(C(=O)c4ccccn4)cnn23)c1)S(C)(=O)=O [Example 39, N-methyl-N-{3-[3-(pyridin-2-carbonyl)-pyrazolo[1,5-a]pyrimidin-7-yl]-phenyl}-methanesulfonamide] | 95.28% | 96.6% | 23.3%
21 | CCN(c1cccc(-c2ccnc3c(C(=O)c4ccccn4)cnn23)c1)S(C)(=O)=O [Example 40, N-ethyl-N-{3-[3-(pyridin-2-carbonyl)-pyrazolo[1,5-a]pyrimidin-7-yl]-phenyl}-methanesulfonamide] | 94.32% | 99.5% | 47.3%
22 | CCN(c1cccc(-c2ccnc3c(C(=O)c4ccncc4)cnn23)c1)S(C)(=O)=O [Example 46, N-ethyl-N-{3-[3-(pyridin-4-carbonyl)-pyrazolo[1,5-a]pyrimidin-7-yl]-phenyl}-methanesulfonamide] | 93.98% | 97.6% | 11.9%
23 | CCN(C(C)=O)c1cccc(-c2ccnc3c(C#N)cnn23)c1 [Zaleplon, reference compound] | 47.17% | – | –
